One may read the IC50 as the concentration that gives 50% inhibition. A higher IC50 goes with a need for much substance. As a reminder, the melting point is the temperature, or range, at which the solid turns liquid.

Bounds are passed on as bounds.

Data set [1] deals with Leishmania braziliensis stationary promastigotes. In words: In vitro antileishmanial activity against promastigotes (MTT). It is filed as cell-based. The settings on record: Leishmania braziliensis; 48 h at 24 °C, MTT, mean ± standard deviation. The method, then: The study was approved by the Committee for the Ethical Handling of Research Animals from the Federal University of Minas Gerais (protocol number 085/2017). Leishmania braziliensis (MHOM/BR/1975/M2904) promastigotes were grown at 24 °C in Schneider’s medium (Sigma-Aldrich, USA) supplemented with 20% heat-inactivated fetal bovine serum (FBS, Sigma-Aldrich, USA) and 20 mmol/L L-glutamine at pH 7.4 [65].
(§1) The in vitro antileishmanial activity was evaluated by incubating the promastigotes or axenic amastigotes (1 × 10^6 cells/well) with the 24 synthetic derivatives (Compounds 5–28; 0 to 600 µg/mL) in 96-well culture plates (Nunc, Nunclon, Roskilde, Denmark) for 48 h at 24 °C. Due to the difficulty in obtaining a high concentration of murine macrophages, the cytotoxicity experiment was evaluated by incubating such cells (5 × 10^5 per mL) with Compound 28 (0 to 600 µg/mL), which presented the best antileishmanial activity, for 48 h at 37 °C in a 5% CO2 environment. AmpB (0 to 10 µg/mL; Sigma-Aldrich, St. Louis, MO, USA) was used as a positive control in both experiments. The cell viability was assessed using the 3-(4.5-dimethylthiazol-2-yl)-2.5-diphenyl tetrazolium bromide (MTT, Sigma-Aldrich, St. Louis, MO, USA) method. The optical density (OD) values were read using a microplate spectrophotometer (Molecular Devices, Spectra Max Plus, San Jose, CA, USA) at 570 nm. Results were entered into Microsoft Excel (version 10.0) spreadsheets, and the 50% Leishmania and macrophage inhibitory concentrations (IC50 and CC50, respectively) were calculated by applying a sigmoidal regression of the dose–response curve. The SI was calculated by dividing the CC50 with the respective IC50 values.

Data set [2] deals with Leishmania braziliensis axenic amastigotes. The data set is described as follows: In vitro antileishmanial activity against axenic amastigotes (MTT). The data set is classed as cell-based. The settings on record: Leishmania braziliensis, 48 h, 48 h at 24 °C, MTT, mean ± standard deviation. As for the experimental part: To obtain the axenic amastigotes, 1 × 10^9 stationary promastigotes were washed three times in sterile phosphate-buffered saline (PBS) and incubated in 5 mL FBS for 48 h at 37 °C. Parasites were washed with cold PBS, and their morphology was evaluated with an optical microscope after Giemsa staining as previously described.
as §1

The molecule `COc1ccc(/C=C/C(=O)NCc2cn(Cc3ccc(C)cc3)nn2)cc1` [Compound 5, N-((1-(4-methylbenzyl)-1H-1,2,3-triazol-4-yl)methyl) (4-methoxy) Cinnamide] gave a melting point of 166 to 167.2 °C. Besides, the IC50 in data set [1] is above 600 µg/mL. Moreover, the concentration for half-maximal inhibition (IC50) in data set [2] is above 600 µg/mL.

With `COc1ccc(/C=C/C(=O)NCc2cn(Cc3ccc(C(C)C)cc3)nn2)cc1` [Compound 6, N-((1-(4-isopropylbenzyl)-1H-1,2,3-triazol-4-yl)methyl) (4-methoxy) cinnamide], the melting point is 187.4 to 188.3 °C. Also, the IC50 in data set [1] was above 600 µg/mL. Besides, the half-inhibitory concentration (IC50) in data set [2] was above 600 µg/mL.

Molecule `COc1ccc(/C=C/C(=O)NCc2cn(Cc3ccc(F)cc3)nn2)cc1` [Compound 7, N-((1-(4-fluorobenzyl)-1H-1,2,3-triazol-4-yl)methyl) (4-methoxy) cinnamide] displayed a melting point of 178.6 to 180 °C. In data set [1], this molecule yielded an IC50 above 600 µg/mL. Further, the 50% inhibitory concentration (IC50) in data set [2] was above 600 µg/mL.

`COc1ccc(/C=C/C(=O)NCc2cn(Cc3ccc(Cl)cc3)nn2)cc1` [Compound 8, N-((1-(4-chlorobenzyl)-1H-1,2,3-triazol-4-yl)methyl) (4-methoxy) cinnamide]: the melting point lay within 185.7 to 186.5 °C. For the same molecule, the IC50 in data set [1] is above 600 µg/mL. The molecule also showed an IC50 in data set [2] above 600 µg/mL.

`COc1ccc(/C=C/C(=O)NCc2cn(Cc3ccc(Br)cc3)nn2)cc1` [Compound 9, N-((1-(4-bromobenzyl)-1H-1,2,3-triazol-4-yl)methyl) (4-methoxy) cinnamide] registered a melting point of 193.1 to 194.7 °C. In addition, the 50% inhibitory concentration (IC50) in data set [1] is above 600 µg/mL. The same molecule returned a 50% inhibitory concentration (IC50) in data set [2] above 600 µg/mL.

With `COc1ccc(/C=C/C(=O)NCc2cn(Cc3ccc(I)cc3)nn2)cc1` [Compound 10, N-((1-(4-iodobenzyl)-1H-1,2,3-triazol-4-yl)methyl) (4-methoxy) cinnamide], the melting point is 200.6 to 202 °C. The half-maximal inhibitory concentration (IC50) in data set [1] was above 600 µg/mL. This molecule also displayed a half-maximal inhibitory concentration (IC50) in data set [2] above 600 µg/mL.

For `COc1ccc(/C=C/C(=O)NCc2cn(Cc3ccc([N+](=O)[O-])cc3)nn2)cc1` [Compound 11, N-((1-(4-nitrobenzyl)-1H-1,2,3-triazol-4-yl)methyl) (4-methoxy) cinnamide], the melting point lay in the range of 192.2 to 193.4 °C. The IC50 in data set [1] is above 600 µg/mL. In data set [2], this molecule showed a concentration for half-maximal inhibition (IC50) above 600 µg/mL.

`COc1ccc(/C=C/C(=O)NCc2cn(Cc3ccc(OC)cc3)nn2)cc1` [Compound 12, N-((1-(4-methoxybenzyl)-1H-1,2,3-triazol-4-yl)methyl) (4-methoxy) cinnamide] registered a melting point of 169 to 170.2 °C. Further, the half-maximal inhibitory concentration (IC50) in data set [1] is above 600 µg/mL. This molecule had a half-inhibitory concentration (IC50) in data set [2] above 600 µg/mL.

`COc1ccc(/C=C/C(=O)NCc2cn(Cc3ccc(OC(F)(F)F)cc3)nn2)cc1` [Compound 13, N-((1-(4-(trifluoromethoxy)benzyl)-1H-1,2,3-triazol-4-yl)methyl) (4-methoxy) cinnamide] had a melting point of 191.4 to 193 °C. The IC50 in data set [1] is above 600 µg/mL. The same molecule yielded an IC50 in data set [2] above 600 µg/mL.

In the case of `COc1ccc(/C=C/C(=O)NCc2cn(Cc3ccc(C(F)(F)F)cc3)nn2)cc1` [Compound 14, N-((1-(4-(trifluoromethyl)benzyl)-1H-1,2,3-triazol-4-yl)methyl) (4-methoxy) cinnamide], the melting point was 220.5 to 221.9 °C. The same molecule displayed an IC50 in data set [1] above 600 µg/mL. For the same molecule, the concentration for half-maximal inhibition (IC50) in data set [2] was above 600 µg/mL.

Molecule `COc1ccc(/C=C/C(=O)NCc2cn(Cc3ccc(F)c(F)c3)nn2)cc1` [Compound 15, N-((1-(3,4-difluorobenzyl)-1H-1,2,3-triazol-4-yl)methyl) (4-methoxy) cinnamide] registered a melting point of 166.3 to 167.7 °C. In data set [1], this molecule registered an IC50 above 600 µg/mL. In data set [2], this molecule gave an IC50 above 600 µg/mL.

Take `COc1ccc(/C=C/C(=O)NCc2cn(Cc3ccc(C)cc3)nn2)cc1OC` [Compound 16, N-((1-(4-methylbenzyl)-1H-1,2,3-triazol-4-yl)methyl) (3,4-dimethoxy) cinnamide]: the melting point is 191.6 to 192.2 °C. The same molecule came in with an IC50 in data set [1] above 600 µg/mL. Further, the concentration for half-maximal inhibition (IC50) in data set [2] is above 600 µg/mL.

For `COc1ccc(/C=C/C(=O)NCc2cn(Cc3ccc(C(C)C)cc3)nn2)cc1OC` [Compound 17, N-((1-(4-isopropylbenzyl)-1H-1,2,3-triazol-4-yl)methyl) (3,4-dimethoxy) cinnamide], the melting point lay within 175.5 to 176.4 °C. In data set [1], this molecule displayed an IC50 above 600 µg/mL. This molecule showed an IC50 in data set [2] above 600 µg/mL.

As for `COc1ccc(/C=C/C(=O)NCc2cn(Cc3ccc(F)cc3)nn2)cc1OC` [Compound 18, N-((1-(4-fluorobenzyl)-1H-1,2,3-triazol-4-yl)methyl) (3,4-dimethoxy) cinnamide], the melting point is 174.8 to 175.5 °C. Further, the IC50 in data set [1] was above 600 µg/mL. The concentration for half-maximal inhibition (IC50) in data set [2] is above 600 µg/mL.

`COc1ccc(/C=C/C(=O)NCc2cn(Cc3ccc(Cl)cc3)nn2)cc1OC` [Compound 19, N-((1-(4-chlorobenzyl)-1H-1,2,3-triazol-4-yl)methyl) (3,4-dimethoxy) cinnamide] registered a melting point of 189.6 to 190.8 °C. In addition, the IC50 in data set [1] was above 600 µg/mL. The IC50 in data set [2] is above 600 µg/mL.

In the case of `COc1ccc(/C=C/C(=O)NCc2cn(Cc3ccc(Br)cc3)nn2)cc1OC` [Compound 20, N-((1-(4-bromobenzyl)-1H-1,2,3-triazol-4-yl)methyl) (3,4-dimethoxy) cinnamide], the melting point was in the range of 198.2 to 199.6 °C. In addition, the half-maximal inhibitory concentration (IC50) in data set [1] is above 600 µg/mL. For the same molecule, the concentration for half-maximal inhibition (IC50) in data set [2] was above 600 µg/mL.

Turning to `COc1ccc(/C=C/C(=O)NCc2cn(Cc3ccc(I)cc3)nn2)cc1OC` [Compound 21, N-((1-(4-iodobenzyl)-1H-1,2,3-triazol-4-yl)methyl) (3,4-dimethoxy) cinnamide], the melting point lay in the range of 194 to 194.9 °C. This molecule showed a 50% inhibitory concentration (IC50) in data set [1] above 600 µg/mL. In addition, the IC50 in data set [2] is above 600 µg/mL.

In turn, `COc1ccc(/C=C/C(=O)NCc2cn(Cc3ccc([N+](=O)[O-])cc3)nn2)cc1OC` [Compound 22, N-((1-(4-nitrobenzyl)-1H-1,2,3-triazol-4-yl)methyl) (3,4-dimethoxy) cinnamide] gave a melting point of 217.6 to 218.9 °C. Besides, in data set [1], the 50% inhibitory concentration (IC50) is above 600 µg/mL. Further, in data set [2], the IC50 is above 600 µg/mL.

Molecule `COc1ccc(Cn2cc(CNC(=O)/C=C/c3ccc(OC)c(OC)c3)nn2)cc1` [Compound 23, N-((1-(4-methoxybenzyl)-1H-1,2,3-triazol-4-yl)methyl) (3,4-dimethoxy) cinnamide] came in with a melting point of 171.2 to 172 °C. Moreover, the IC50 in data set [1] was above 600 µg/mL. The molecule also had an IC50 in data set [2] above 600 µg/mL.

Molecule `COc1ccc(/C=C/C(=O)NCc2cn(Cc3ccc(OC(F)(F)F)cc3)nn2)cc1OC` [Compound 24, N-((1-(4-(trifluoromethoxy)benzyl)-1H-1,2,3-triazol-4-yl)methyl) (3,4-dimethoxy) cinnamide] returned a melting point of 177.4 to 178.6 °C. Further, the IC50 in data set [1] was above 600 µg/mL. In data set [2], the half-inhibitory concentration (IC50) was above 600 µg/mL.

Consider `COc1ccc(/C=C/C(=O)NCc2cn(Cc3ccc(C(F)(F)F)cc3)nn2)cc1OC` [Compound 25, N-((1-(4-(trifluoromethyl)benzyl)-1H-1,2,3-triazol-4-yl)methyl) (3,4-dimethoxy) cinnamide], for which the melting point lay in the range of 196.4 to 197.6 °C. The half-maximal inhibitory concentration (IC50) in data set [1] is above 600 µg/mL. In addition, in data set [2], the 50% inhibitory concentration (IC50) was above 600 µg/mL.

For the molecule `COc1ccc(/C=C/C(=O)NCc2cn(Cc3ccc(F)c(F)c3)nn2)cc1OC` [Compound 26, N-((1-(3,4-difluorobenzyl)-1H-1,2,3-triazol-4-yl)methyl) (3,4-dimethoxy) cinnamide], the melting point was in the range of 166 to 167.2 °C. In data set [1], this molecule showed an IC50 above 600 µg/mL. In data set [2], the IC50 is above 600 µg/mL.

Molecule `CCN(CC)c1ccc2cc(-n3cc(CNC(=O)/C=C/c4ccc(OC)cc4)nn3)c(=O)oc2c1` [Compound 27, N-((1-(7-(diethylamino)-2-oxo-2H-chromen-3-yl)-1H-1,2,3-triazol-4-yl)methyl) (4-methoxy) cinnamide] gave a melting point of 191.3 to 192.7 °C. In addition, the IC50 in data set [1] is above 600 µg/mL. The molecule also came in with a half-maximal inhibitory concentration (IC50) in data set [2] above 600 µg/mL.
